Experimental data from PubChem BioAssay AID504638 (National Center for Advancing Translational Sciences (NCATS), 2011).

Test system: mouse liver microsomes, stability LC-MS/MS, 1 uM
Assay: Inhibitors of HPGD: Mouse Liver Microsome Profiling
Details: at 1 µM, hits give high values

| SMILES | half-life [min] |
| --- | --- |
| Cc1cc(-c2nnc3n2CCCCC3)c(C)n1-c1ccccc1 | 8 |
| Cc1cccc(-n2cnc3cc(C(=O)N4CCCCC4)ccc32)c1 | 9 |
